Assay results from PMC3319116 (Journal of Medicinal Chemistry, 2012).

Assays:
CB1 [1] = target: T1, CB1 (Homo sapiens, UniProt P21554); assay: CB1 Gαq16-coupled intracellular calcium mobilization assay in CHO-K1 cells; type: cell-based
[2] = In vivo evaluation of brain penetration; parameters: species or system rats; conditions: 10 mg/kg; for bioavailable with oral or intra-peritoneal dosing: oral or ip
CB1 [3] = target: T1, CB1; assay: Radioligand displacement of [3H]CP55940 at CB1; type: binding; conditions: Ki vs CP55940

T1 sequence (P21554 whole entry): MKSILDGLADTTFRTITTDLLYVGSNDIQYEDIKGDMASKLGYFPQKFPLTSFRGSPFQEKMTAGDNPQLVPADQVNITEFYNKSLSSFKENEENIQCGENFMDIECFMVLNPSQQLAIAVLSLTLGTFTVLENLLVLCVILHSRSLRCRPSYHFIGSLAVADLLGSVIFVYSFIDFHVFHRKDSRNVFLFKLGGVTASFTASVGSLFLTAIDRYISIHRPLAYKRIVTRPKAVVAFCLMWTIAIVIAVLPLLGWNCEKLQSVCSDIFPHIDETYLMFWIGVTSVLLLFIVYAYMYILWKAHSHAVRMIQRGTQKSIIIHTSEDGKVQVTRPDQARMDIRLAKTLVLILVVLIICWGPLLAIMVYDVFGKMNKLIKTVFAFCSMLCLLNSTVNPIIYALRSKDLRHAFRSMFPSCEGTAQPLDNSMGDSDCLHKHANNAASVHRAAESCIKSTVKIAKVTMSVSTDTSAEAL

Cc1c(C(=O)N2CCC(C(=O)O)(c3ccccc3)CC2)nn(-c2ccc(Cl)cc2Cl)c1-c1ccc(Cl)cc1 [Compound 10, 1-{[5-(4-Chlorophenyl)-1-(2,4-dichlorophenyl)-4-methyl-1H-pyrazol-3-yl]carbonyl}-4-phenylpiperidine-4-carboxylic acid]
Kb (CB1 [1]): 1.17 µM

Cc1c(C(=O)N2CCC(NC(=O)NC(C)(C)C)(c3ccccc3)CC2)nn(-c2ccc(Cl)cc2Cl)c1-c1ccc(Cl)cc1 [Compound 17a, 3-tert-Butyl-1-(1-{[5-(4-chlorophenyl)-1-(2,4-dichlorophenyl)-4-methyl-1H-pyrazol-3-yl]carbonyl}-4-phenylpiperidin-4-yl)urea]
Brain Conc. ([2]; Oral, 60 min, unperfused brain): below the lower limit of quantitation
bioavailable with oral or intra-peritoneal dosing [2]: bioavailable

Cc1c(C(=O)N2CCC(NC(=O)NCc3ccccc3)(c3ccccc3)CC2)nn(-c2ccc(Cl)cc2Cl)c1-c1ccc(Cl)cc1 [Compound 17b, 1-Benzyl-3-(1-{[5-(4-chlorophenyl)-1-(2,4-dichlorophenyl)-4-methyl-1H-pyrazol-3-yl]carbonyl}-4-phenylpiperidin-4-yl)urea]
Ke (nM) CB1 (CB1 [1]; apparent dissociation affinity constant, rightward shift of CP55940 curve): 2.09 nM

Cc1c(C(=O)N2CCC(NC(=O)Nc3ccc(N(C)C)cc3)(c3ccccc3)CC2)nn(-c2ccc(Cl)cc2Cl)c1-c1ccc(Cl)cc1 [Compound 17e, 3-(1-{[5-(4-Chlorophenyl)-1-(2,4-dichlorophenyl)-4-methyl-1H-pyrazol-3-yl]carbonyl}-4-phenylpiperidin-4-yl)-1-[4-(dimethylamino)phenyl]urea]
Kb (CB1 [1]): 0.264 µM

Cc1c(C(=O)NC2CCN(C(=O)OC(C)(C)C)CC2)nn(-c2ccc(Cl)cc2Cl)c1-c1ccc(Cl)cc1 [Compound 18a, tert-Butyl-4-[5-(4-chlorophenyl)-1-(2,4-dichlorophenyl)-4-methyl-1H-pyrazole-3-amido]piperidine-1-carboxylate]
bioavailable with oral or intra-peritoneal dosing [2]: bioavailable

Cc1c(C(=O)NC2CCNCC2)nn(-c2ccc(Cl)cc2Cl)c1-c1ccc(Cl)cc1 [Compound 18b, 5-(4-Chlorophenyl)-1-(2,4-dichlorophenyl)-4-methyl-N-(piperidin-4-yl)-1H-pyrazole-3-carboxamide]
Kb (CB1 [1]): 5.11 µM

CC(=O)N1CCC(NC(=O)c2nn(-c3ccc(Cl)cc3Cl)c(-c3ccc(Cl)cc3)c2C)CC1 [Compound 18c, N-(1-Acetylpiperidin-4-yl)-5-(4-chlorophenyl)-1-(2,4-dichlorophenyl)-4-methyl-1H-pyrazole-3-carboxamide]
Kb (CB1 [1]): 0.195 µM

Cc1c(C(=O)NC2CCN(S(C)(=O)=O)CC2)nn(-c2ccc(Cl)cc2Cl)c1-c1ccc(Cl)cc1 [Compound 18d, 5-(4-Chlorophenyl)-1-(2,4-dichlorophenyl)-N-(1-methanesulfonylpiperidin-4-yl)-4-methyl-1H-pyrazole-3-carboxamide]
Kb (CB1 [1]): 0.269 µM

Cc1c(C(=O)NC2CCN(S(N)(=O)=O)CC2)nn(-c2ccc(Cl)cc2Cl)c1-c1ccc(Cl)cc1 [Compound 18e, 5-(4-Chlorophenyl)-1-(2,4-dichlorophenyl)-4-methyl-N-(1-sulfamoylpiperidin-4-yl)-1H-pyrazole-3-carboxamide]
Kb (CB1 [1]): 0.592 µM

Cc1c(C(=O)NC2CCN(C(=O)NC(C)(C)C)CC2)nn(-c2ccc(Cl)cc2Cl)c1-c1ccc(Cl)cc1 [Compound 18f, 1-N-tert-Butyl-4-C-5-(4-chlorophenyl)-1-(2,4-dichlorophenyl)-4-methyl-1H-pyrazole-3-piperidine-1,4-diamido]
bioavailable with oral or intra-peritoneal dosing [2]: bioavailable

CCOC(=O)N1CCC(NC(=O)c2nn(-c3ccc(Cl)cc3Cl)c(-c3ccc(Cl)cc3)c2C)CC1 [Compound 18l, Ethyl-4-[5-(4-chlorophenyl)-1-(2,4-dichlorophenyl)-4-methyl-1H-pyrazole-3-amido]piperidine-1-carboxylate]
Kb (CB1 [1]): 0.003 µM

Cc1c(C(=O)N[C@H]2CCCN(C(=O)OC(C)(C)C)C2)nn(-c2ccc(Cl)cc2Cl)c1-c1ccc(Cl)cc1 [Compound 19a, tert-Butyl-(3S)-3-[5-(4-chlorophenyl)-1-(2,4-dichlorophenyl)-4-methyl-1H-pyrazole-3-amido]piperidine-1-carboxylate]
Kb (CB1 [1]): 0.842 µM

Cc1c(C(=O)N[C@H]2CCCNC2)nn(-c2ccc(Cl)cc2Cl)c1-c1ccc(Cl)cc1 [Compound 19b, 5-(4-Chlorophenyl)-1-(2,4-dichlorophenyl)-4-methyl-N-[(3S)-piperidin-3-yl]-1H-pyrazole-3-carboxamide]
Kb (CB1 [1]): 1.88 µM

Cc1c(C(=O)N[C@H]2CCCN(S(C)(=O)=O)C2)nn(-c2ccc(Cl)cc2Cl)c1-c1ccc(Cl)cc1 [Compound 19d, 5-(4-Chlorophenyl)-1-(2,4-dichlorophenyl)-N-[(3S)-1-methanesulfonylpiperidin-3-yl]-4-methyl-1H-pyrazole-3-carboxamide]
Kb (CB1 [1]): 0.062 µM
selectivity for CB1 versus CB2 (CB1 [3]): over 100 fold

CCNC(=O)N1CCC[C@H](NC(=O)c2nn(-c3ccc(Cl)cc3Cl)c(-c3ccc(Cl)cc3)c2C)C1 [Compound 19e, (3S)-3-C-5-(4-Chlorophenyl)-1-(2,4-dichlorophenyl)-4-methyl-1H-pyrazole-3-1-N-ethylpiperidine-1,3-diamido]
Kb (CB1 [1]): 0.28 µM

Cc1c(C(=O)N[C@H]2CCCN(C(=O)NC(C)C)C2)nn(-c2ccc(Cl)cc2Cl)c1-c1ccc(Cl)cc1 [Compound 19f, (3S)-3-C-5-(4-Chlorophenyl)-1-(2,4-dichlorophenyl)-4-methyl-1H-pyrazole-3-1-N-(propan-2-yl)piperidine-1,3-diamido]
Kb (CB1 [1]): 0.265 µM

CCCCNC(=O)N1CCC[C@H](NC(=O)c2nn(-c3ccc(Cl)cc3Cl)c(-c3ccc(Cl)cc3)c2C)C1 [Compound 19h, (3S)-1-N-Butyl-3-C-5-(4-chlorophenyl)-1-(2,4-dichlorophenyl)-4-methyl-1H-pyrazole-3-piperidine-1,3-diamido]
Kb (CB1 [1]): 0.23 µM

Cc1c(C(=O)N[C@H]2CCCN(C(=O)NC(C)(C)C)C2)nn(-c2ccc(Cl)cc2Cl)c1-c1ccc(Cl)cc1 [Compound 19i, (3S)-1-N-tert-Butyl-3-C-5-(4-chlorophenyl)-1-(2,4-dichlorophenyl)-4-methyl-1H-pyrazole-3-piperidine-1,3-diamido]
Kb (CB1 [1]): 0.206 µM

Cc1c(C(=O)N[C@@H]2CCCNC2)nn(-c2ccc(Cl)cc2Cl)c1-c1ccc(Cl)cc1 [Compound 20b, 5-(4-Chlorophenyl)-1-(2,4-dichlorophenyl)-4-methyl-N-[(3R)-piperidin-3-yl]-1H-pyrazole-3-carboxamide]
Kb (CB1 [1]): 1.17 µM

CC(=O)N1CCC[C@@H](NC(=O)c2nn(-c3ccc(Cl)cc3Cl)c(-c3ccc(Cl)cc3)c2C)C1 [Compound 20c, N-[(3R)-1-Acetylpiperidin-3-yl]-5-(4-chlorophenyl)-1-(2,4-dichlorophenyl)-4-methyl-1H-pyrazole-3-carboxamide]
Kb (CB1 [1]): 0.53 µM

Cc1c(C(=O)N[C@@H]2CCCN(S(C)(=O)=O)C2)nn(-c2ccc(Cl)cc2Cl)c1-c1ccc(Cl)cc1 [Compound 20d, 5-(4-Chlorophenyl)-1-(2,4-dichlorophenyl)-N-[(3R)-1-methanesulfonylpiperidin-3-yl]-4-methyl-1H-pyrazole-3-carboxamide]
Kb (CB1 [1]): 0.007 µM
potency relative to sulfonamide 7 (CB1 [1]; Ke CB1, fold more potent than 7): 16 fold
selectivity for CB1 versus CB2 (CB1 [3]): over 100 fold

CCNC(=O)N1CCC[C@@H](NC(=O)c2nn(-c3ccc(Cl)cc3Cl)c(-c3ccc(Cl)cc3)c2C)C1 [Compound 20e, (3R)-3-C-5-(4-Chlorophenyl)-1-(2,4-dichlorophenyl)-4-methyl-1H-pyrazole-3-1-N-ethylpiperidine-1,3-diamido]
Kb (CB1 [1]): 0.171 µM

CCCCNC(=O)N1CCC[C@@H](NC(=O)c2nn(-c3ccc(Cl)cc3Cl)c(-c3ccc(Cl)cc3)c2C)C1 [Compound 20h, (3R)-1-N-Butyl-3-C-5-(4-chlorophenyl)-1-(2,4-dichlorophenyl)-4-methyl-1H-pyrazole-3-piperidine-1,3-diamido]
Kb (CB1 [1]): 0.118 µM

Cc1c(C(=O)N[C@@H]2CCCN(C(=O)NC(C)(C)C)C2)nn(-c2ccc(Cl)cc2Cl)c1-c1ccc(Cl)cc1 [Compound 20i, (3R)-1-N-tert-Butyl-3-C-5-(4-chlorophenyl)-1-(2,4-dichlorophenyl)-4-methyl-1H-pyrazole-3-piperidine-1,3-diamido]
Kb (CB1 [1]): 0.268 µM

CCNC(=O)NCC1CCC(CNC(=O)c2nn(-c3ccc(Cl)cc3Cl)c(-c3ccc(Cl)cc3)c2C)CC1 (stereo not drawn) [Compound 21a, 5-(4-Chlorophenyl)-1-(2,4-dichlorophenyl)-N-[(4-{[(ethylcarbamoyl)amino]methyl}cyclohexyl)methyl]-4-methyl-1H-pyrazole-3-carboxamide]
Kb (CB1 [1]): 0.135 µM

Cc1c(C(=O)NCC2CCC(CNC(=O)NC(C)C)CC2)nn(-c2ccc(Cl)cc2Cl)c1-c1ccc(Cl)cc1 (stereo not drawn) [Compound 21b, 5-(4-Chlorophenyl)-1-(2,4-dichlorophenyl)-4-methyl-N-{[4-({[(propan-2-yl)carbamoyl]amino}methyl)cyclohexyl]methyl}-1H-pyrazole-3-carboxamide]
Kb (CB1 [1]): 0.351 µM

CCCNC(=O)NCC1CCC(CNC(=O)c2nn(-c3ccc(Cl)cc3Cl)c(-c3ccc(Cl)cc3)c2C)CC1 (stereo not drawn) [Compound 21c, 5-(4-Chlorophenyl)-1-(2,4-dichlorophenyl)-4-methyl-N-[(4-{[(propylcarbamoyl)amino]methyl}cyclohexyl)methyl]-1H-pyrazole-3-carboxamide]
Kb (CB1 [1]): 0.486 µM

CCCCNC(=O)NCC1CCC(CNC(=O)c2nn(-c3ccc(Cl)cc3Cl)c(-c3ccc(Cl)cc3)c2C)CC1 (stereo not drawn) [Compound 21d, N-[(4-{[(Butylcarbamoyl)amino]methyl}cyclohexyl)methyl]-5-(4-chlorophenyl)-1-(2,4-dichlorophenyl)-4-methyl-1H-pyrazole-3-carboxamide]
Kb (CB1 [1]): 0.274 µM

Cc1c(C(=O)NCC2CCC(CNC(=O)NC(C)(C)C)CC2)nn(-c2ccc(Cl)cc2Cl)c1-c1ccc(Cl)cc1 (stereo not drawn) [Compound 21e, N-[(4-{[(tert-Butylcarbamoyl)amino]methyl}cyclohexyl)methyl]-5-(4-chlorophenyl)-1-(2,4-dichlorophenyl)-4-methyl-1H-pyrazole-3-carboxamide]
Kb (CB1 [1]): 0.15 µM
